Patent EP1528931B1, “DIPEPTIDYL PEPTIDASE IV INHIBITORS FOR DECREASING THE RATE OF CHRONIC WEIGHT GAIN” (Prosidion Ltd., priority 2002, dated 2004)
Several values for one entry are separate records, joined by “and”; a condition that tells them apart may be missing. Equal values may be shown once. Ends that are not written are not given here.

Columns and labels:
Male Zucker fa/fa rats [1] = assay: OGTT on day 21 of repeated dosing; type: in vivo, rat
Protocol: OGTT: A final OGTT was performed on day 21 with blood sampling from the tail vein. Blood samples from the tail vein were taken at-12 h (the night before day 21), at 0 min (immediately before the beginning of OGTT), at 10, 20, 30, 40, 50, 60, 80, 100 and 120 min. Blood samples were taken in 20 µl glass capillaries for blood glucose measurements and in Eppendorf tubes (100 µl). The latter were immediately centrifuged and the plasma fractions were stored at-20°C for insulin analysis.
(§1) Blood glucose: Glucose levels were measured using the glucose oxidase procedure (Super G Glukosemeßgerät; Dr. Müller Gerätebau, Freital, Germany).
(§2) Plasma insulin: Insulin concentrations were assayed by the antibody RIA method (LINCO Research, Inc. St Charles, Mo., USA).

Male Zucker fa/fa rats [2] = assay: Repeated once-daily dosing for 21 days: morning values and day-night profile of blood glucose and plasma insulin; type: in vivo, rat
Protocol: The parameters monitored were morning blood glucose and plasma insulin levels. In a day-night profile, glycemia and insulinaemia were monitored from day 16 to day 17. An OGTT was performed finally on day 21 to monitor blood glucose and plasma insulin kinetics to assess changes in glucose tolerance. Glibenclamide (DAB 1996; R011150/33372) was donated by Berlin-Chemie (Berlin, Germany). Male Zucker (fa/fa) rats of the body Weight class of 300g were purchased from Charles River (Sulzfeld, Germany).
Housing Conditions: Animals were kept single-housed under conventional conditions with controlled temperature (22±2 °C) on a 12/12 hours light/dark cycle (light on at 06:00 a.m.). Standard pellets (ssniff®, Soest, Germany) and tap water acidified with HCl were allowed ad libitum.
Catheterization of Carotid Artery: After one week of adaptation carotid catheters were implanted in the rats under general anesthesia (injection of 0.25 ml/kg i.p. Rompun® [2%], Bayer, Germany) and 0.5 ml/kg i.p. Velonarkon® (Arzneimittelwerk Dresden, Germany). The animals were allowed to recover for one week. The catheter was flushed with heparin-saline (104 IU/ml) three times per week.
Thereafter, the non-diabetic Wistar rats were treated orally once daily with RP (5 mg/kg b.w.) or TP (21.51 mg/kg b.w.) and the diabetic Zucker rats were treated orally once daily with RP (1 mg/kg b.w.) or TP (21.61 mg/kg b.w.) for 21 days at 05.00 p.m. (before regular food intake in the dark phase). The controls were given 1% cellulose solution orally (5 ml/kg). Blood samples were taken every morning at 07.30 a.m. from tail veins for measurement of blood glucose and plasma insulin. The last blood samples of this part of the program were taken at 07.30 a.m. on the 15th day to measure blood glucose and plasma insulin. The oral drug therapy was continued for one week. Recording the day-night profile under the above therapy blood glucose (Δt ≡ 3 h) and plasma insulin (Δt = 3-6 h) wore monitored from day 16 (at b5.40 p.m. beginning) to day 17 (at 02.00 p.m. end).
as §1, §2

[3] = target: human plasma containing DP IV-activity (Homo sapiens, UniProt P27487); assay: Proteolytic processing of peptides in human plasma with or without P32/98, MALDI-TOF; details: human EDTA-plasma with 9.8 µMol/l isoleucyl thiazolidine hemifumarate
Protocol: Matrix-assisted laser desorption/ionisation mass spectrometry was carried out using the Hewlett-Packard G2025 LD-TOF System with a linear tune of flight analyzer. […] The spectrometer was calibrated externally. […] Samples of the reaction mixtures were removed at various time intervals and mixed with equal volumes of the matrix solution. By mixing assay sample and matrix, the low pH of the matrix solution stopped the enzymatic reaction. A small volume (< 1 µl) of this mixture was transferred to a probe tip and immediately evaporated in a Hewlett-Packard G2024A Sample Prep Accessory to ensure rapid and homogenous sample crystallization. All spectra were generated using automatic mode by averaging 250 single shots selected by the signal-to-noise ratio.
The DP IV used in this study was purified from porcine kidney. […] In the case of plasma, fresh prepared human EDTA-plasma from healthy subjects was used. […] Capillary zone electrophoresis (CZE) investigations were carried out using a system from Beckman. Peptides and enzymes were incubated in the capillary electrophoresis system at 37°C using a 20 mM phosphate buffer pH7.4. Decrease of substrate was determined by subsequent measurements of the same sample. Separation was carried out using a 0.1 M phosphate buffer pH 2.5, a 50 µm * 30 cm fused silica capillary and 16 kV constant voltage. Peptides were detected at 200 nm. Substrate concentrations were calculated from the height of the peptide peaks, For determination of kinetic constants the degradation velocity from at least 4 substrate concentrations were determined and fitted according the Michaelis-Menten equation using Graphit 4.0.

[4] = system: human plasma containing DP IV-activity; assay: as above; type: in vitro ADME; details: inhibitor 9.8 µMol/l
Excerpt: The instrument was equipped with a 337 nm nitrogen laser, a potential acceleration source (5 kV) and a 1.0 m flight tube. […] The spectrometer was calibrated externally.
Peptides were detected at 200 nm.

porcine DP IV = target: T1, porcine DP IV (Sus scrofa, UniProt P22411); assay: Kinetic constants of peptide degradation by DP IV, capillary zone electrophoresis (CZE); type: biochemical; details: 37°C, phosphate buffer pH7.4, read-out: Cleavage, porcine DP IV, Km
T1 construct: from tissue; host or cells: porcine kidney
T1 sequence (P22411 whole entry): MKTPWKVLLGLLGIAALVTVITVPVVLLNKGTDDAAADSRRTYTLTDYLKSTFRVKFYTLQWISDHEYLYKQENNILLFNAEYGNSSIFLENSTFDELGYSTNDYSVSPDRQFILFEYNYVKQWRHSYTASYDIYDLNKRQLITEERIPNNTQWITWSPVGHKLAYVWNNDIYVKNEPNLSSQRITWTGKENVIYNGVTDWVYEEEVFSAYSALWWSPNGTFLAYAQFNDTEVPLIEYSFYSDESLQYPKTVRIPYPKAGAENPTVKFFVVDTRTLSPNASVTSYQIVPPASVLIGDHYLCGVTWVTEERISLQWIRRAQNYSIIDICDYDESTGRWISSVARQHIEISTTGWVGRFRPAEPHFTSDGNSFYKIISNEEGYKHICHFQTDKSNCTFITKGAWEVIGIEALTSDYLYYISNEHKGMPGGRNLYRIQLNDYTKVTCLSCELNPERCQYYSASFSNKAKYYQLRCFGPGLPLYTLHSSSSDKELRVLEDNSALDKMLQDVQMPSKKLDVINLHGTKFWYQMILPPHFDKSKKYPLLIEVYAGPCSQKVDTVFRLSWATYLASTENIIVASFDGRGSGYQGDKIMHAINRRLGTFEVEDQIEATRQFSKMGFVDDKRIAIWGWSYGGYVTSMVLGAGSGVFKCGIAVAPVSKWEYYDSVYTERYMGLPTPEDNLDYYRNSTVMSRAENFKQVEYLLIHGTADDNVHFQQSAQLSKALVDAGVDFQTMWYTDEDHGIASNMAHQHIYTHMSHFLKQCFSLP
Protocol: The DP IV used in this study was purified from porcine kidney. The specific activity measured using Gly-Pro-4-nitroanilide as a chromogenic substrate was at least 5 units/mg. […] Capillary zone electrophoresis (CZE) investigations were carried out using a system from Beckman. Peptides and enzymes were incubated in the capillary electrophoresis system at 37°C using a 20 mM phosphate buffer pH7.4. Decrease of substrate was determined by subsequent measurements of the same sample. Separation was carried out using a 0.1 M phosphate buffer pH 2.5, a 50 µm * 30 cm fused silica capillary and 16 kV constant voltage. Peptides were detected at 200 nm. Substrate concentrations were calculated from the height of the peptide peaks, For determination of kinetic constants the degradation velocity from at least 4 substrate concentrations were determined and fitted according the Michaelis-Menten equation using Graphit 4.0.

Sequence of human plasma containing DP IV-activity (Homo sapiens, UniProt P27487) (P27487 39-766 limits assumed): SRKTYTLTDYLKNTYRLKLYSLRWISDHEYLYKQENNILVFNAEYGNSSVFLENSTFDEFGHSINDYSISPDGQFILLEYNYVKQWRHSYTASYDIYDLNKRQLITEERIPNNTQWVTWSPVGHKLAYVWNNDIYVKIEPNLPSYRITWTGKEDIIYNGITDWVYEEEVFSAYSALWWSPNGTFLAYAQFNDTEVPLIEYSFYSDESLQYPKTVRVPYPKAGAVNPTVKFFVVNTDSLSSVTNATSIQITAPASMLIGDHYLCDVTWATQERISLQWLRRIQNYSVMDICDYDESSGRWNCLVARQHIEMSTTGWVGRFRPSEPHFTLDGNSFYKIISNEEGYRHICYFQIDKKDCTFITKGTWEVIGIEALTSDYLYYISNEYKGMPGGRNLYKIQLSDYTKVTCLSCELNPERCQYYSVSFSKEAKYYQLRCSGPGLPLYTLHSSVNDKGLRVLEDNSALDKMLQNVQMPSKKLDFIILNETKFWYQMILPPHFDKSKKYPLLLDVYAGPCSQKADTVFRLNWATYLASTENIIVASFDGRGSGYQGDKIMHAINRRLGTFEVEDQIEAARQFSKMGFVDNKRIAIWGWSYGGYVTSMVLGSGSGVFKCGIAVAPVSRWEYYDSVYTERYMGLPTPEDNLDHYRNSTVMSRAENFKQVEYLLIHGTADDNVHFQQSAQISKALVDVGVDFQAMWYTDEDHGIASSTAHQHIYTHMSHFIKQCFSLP

COc1ccc(Cl)cc1C(=O)NCCc1ccc(S(=O)(=O)NC(=O)NC2CCCCC2)cc1 [glibenclamide]
Glycemia at last drug application before overnight fasting (Male Zucker fa/fa rats [1]; 05.00 p.m., night before day 21): 8.81 ± 1.21 mmol/L
Blood glucose increase after the glucose load (Male Zucker fa/fa rats [1]; OGTT day 21): about 11 mmol/l
glucose area under the curve (G-AUC0-120 min) (Male Zucker fa/fa rats [1]; OGTT day 21): 1096 ± 76 mmol·min/L
Glycemia after overnight fasting (basal, before OGTT) (Male Zucker fa/fa rats [1]; day 21, 07.30 a.m.): 4.91 ± 0.37 mmol/L
OGTT blood glucose (Male Zucker fa/fa rats [1]; day 21, 50 min): 16.33 ± 0.98 mmol/L
OGTT blood glucose (Male Zucker fa/fa rats [1]; day 21, 80 min): 16.24 ± 1.09 mmol/L
OGTT blood glucose (Male Zucker fa/fa rats [1]; day 21, 100 min): 15.13 ± 0.76 mmol/L
OGTT blood glucose (Male Zucker fa/fa rats [1]; day 21, 120 min): 14.81 ± 0.66 mmol/L
Fasting plasma insulin at the beginning of the OGTT (Male Zucker fa/fa rats [1]; day 21, overnight fasting, listed as RP): 11.8±1.5 ng/ml and ~ 12.5 ng/ml
Day-night profile: mean blood glucose (Male Zucker fa/fa rats [2]; Zucker rats, 02.00 p.m. next day): 7.34 ± 0.77 mmol/L
Day-night profile: plasma insulin (Male Zucker fa/fa rats [2]; Zucker rats, 02.00 p.m. the next day): 58.3 ± 7.3 ng/mL
Day-night profile: plasma insulin (Male Zucker fa/fa rats [2]; Zucker rats, day 16, 05.00 p.m.): 50.0 ± 8.2 ng/mL
Day-night profile: mean blood glucose (Male Zucker fa/fa rats [2]; Zucker rats, day 16, 05.00 p.m., RP 1 mg/kg or TP 21.61 mg/kg orally once daily): 7.96 ± 1.13 mmol/L
Day-night profile: plasma insulin (Male Zucker fa/fa rats [2]; Zucker rats, day 16, 08.00 p.m.): 57.3 ± 8.2 ng/mL
Day-night profile: mean blood glucose (Male Zucker fa/fa rats [2]; Zucker rats, day 16, 11.00 p.m.): 14.80 ± 1.46 mmol/L
Day-night profile: plasma insulin (Male Zucker fa/fa rats [2]; Zucker rats, day 17, 05.00 a.m.): 76.3 ± 8.6 ng/mL
Day-night profile: mean blood glucose (Male Zucker fa/fa rats [2]; Zucker rats, day 17, 11.00 a.m.): 7.66 ± 1.22 mmol/L
Increase of morning blood glucose (Male Zucker fa/fa rats [2]; Zucker rats, within two days of therapy): about 1.5 mmol/l
Increase of insulin output (Male Zucker fa/fa rats [2]; obese Zucker rat, subchronic treatment, total daily insulin secretion): 27%

Cholecystokinin [Cholecystokinin (CCK21)]
Cleavage, human plasma +P32/98 [3]: slow unspecific degradation by aminopeptidases and ø

Di-[2S,3S]-2-Amino-3-methyl-pentanoic-1,3-thiazolidine fumarate [P32/98]
Hydrolysis of gastrointestinal peptides in human plasma [4]: blocked

Gastrin releasing peptide (VPLPAGGGTVLTKMYPRGNHWAVGHLM; ends and bridges not checked; UniProt P07492 24-50, looked up) [Gastrin releasing peptide (GRP)]
Cleavage, human plasma +P32/98 [3]: ø

Peptide histidin methionine [Peptide histidin methionine (PHM)]
Cleavage, human plasma +P32/98 [3]: ø
Km (porcine DP IV): 35 µM

Pituitary adenylate cyclase activating polypeptide 27
Cleavage, human plasma +P32/98 [3]: ø

Secretin
Cleavage, human plasma +P32/98 [3]: ø

Somatostatin 14
Km (porcine DP IV): 42 µM

Somatostatin 28
Km (porcine DP IV): 6 µM
